Assay results: patent US12599575B2, “Antimicrobial adjuvant containing biphenyl derivative compound as active ingredient, and uses thereof” (KOREA RESEARCH INSTITUTE OF BIOSCIENCE AND BIOTECHNOLOGY, priority 2021, dated 2026)
“Also recorded” adds a separate entry of the source.

Columns and labels:
P. aeruginosa SMC-U11 = assay: checkerboard assay, MIC and FICI; details: for MIC Alone: 18 hours
Experimental: (§1) It was determined that when the FICI value was 0.5 or less, the effect was synergistic, when the value was 0.5 to 4.0, the effect was indifferent, and when the value was 4 or more, the effect was antagonistic.
(§2) First, in each LB agar plate in which bacteria (Klebsiella pneumonia SCH530, SCH740, SCH777, Pseudomonas aeruginosa SMC-U9, SMC-U10, SMC-U11) were grown, 3 to 4 colonies were inoculated into 4 to 5 ml of a LB broth and incubated overnight at 220 rpm at 37° C. for 16 hours. The next day, 5 ml of a culture medium diluted to 1/10000 was incubated to OD=0.08-0.1 in a 15 ml round culture tube at 220 rpm at a temperature of 37° C., and was diluted to 1/20 and dispensed at 196 ul in a 96-well plate. PA108 and PMB were dispensed at concentrations of 0 to 80 μM and 0 to 128 μg/Ml, respectively at 2 ul each and mixed in each well, and incubated at 37° C. for 18 hours to measure the OD value using a multifunctional microplate reader.

K. pneumoniae SCH530 = assay: checkerboard assay, MIC and FICI; details: for MIC Alone: 18 hours
Experimental: as §1, §2

R357 strains [1] = assay: mouse sepsis model caused by R357 infection, survival rate; format: in vivo; details: PMB 100 μg/kg + PA108 60 μg/kg intraperitoneally
Experimental: Specifically, 5×10^7 of R357 strains were intraperitoneally injected into 6 week old C57BL/6 mouses to prepare a sepsis mouse model caused by R357 infection, and PMB at a dose of 100 μg/kg and PA108 at a dose of 60 μg/kg were intraperitoneally injected alone or in combination to measure the survival rate of the mouse.

[2] = test system: Acinetobacter baumannii strains (R357); assay: bacterial morphological change (fluorescence microscope, scanning electron microscope); details: 9 hours
Experimental: First, in a LB agar plate, a single colony was inoculated into 3 ml of a LB broth and incubated overnight at 37° C. and 220 rpm for 16 hours. Thereafter, 1% of the culture medium was diluted in a 250 ml of Erlenmeyer flask and incubated to OD=0.5, treated with PMB and PA108 at concentrations of 16 μg/ml and 5 μM, respectively, and incubated for 9 hours. The cells were centrifuged at 4° C. for 10 minutes at 8,000×g, washed three times, and resuspended in PBS. 3 ml of the cell suspension was fixed and then observed with a scanning electron microscope. A LIVE/DEAD BacLight bacterial viability kit (Cat #. L7007, Invitrogen, Waltham, Massachusetts, USA) was used to add SYTO9 (67 mM, 3 μL) which bound to DNA and RNA of living cells to emit green fluorescence and Propidium iodide (PI) (1.67 mM, 3 μL) which bound to DNA and RNA of dead cells to emit red fluorescence to add each sample at a final volume of 3 ml, and the samples were incubated in a dark room at room temperature for 15 hours and observed with a fluorescence microscope.

[3] = test system: Acinetobacter baumannii strains; assay: membrane permeability (PI fluorescence); format: cell-based; details: PMB 16 μg/ml + PA108 5 μM; 30 minutes
Experimental: Specifically, for sample preparation, a colony culture grown for 16 hours was washed and resuspended in 0.01 M PBS at pH 7.4. Absorbance at 600 nm in a bacteria suspension was standardized to 0.5 in the same buffer solution, and a pigment PI9 (cat. P1304MP, Thermo Fisher Scientific, Waltham, Massachusetts, USA) was added at a final concentration of 1.67 μM. After incubation at 37° C. for 30 minutes, 198 μl of fluorescently labeled bacteria cells were added to a 96-well plate, and 16 μg/ml of PMB and 2 μl of 5 μM PA108 were added. After incubation for 30 minutes again, fluorescence was measured in a fluorescence measurement wavelength range of excitation of 535 nm and emission of 615 nm by a multifunctional microplate reader to measure membrane permeability.

R357 strains [4] = assay: bacterial viability test (colony forming unit)
Experimental: First, in a LB agar plate, a single colony was inoculated into a 3 ml of a LB broth and incubated overnight under the conditions of 37° C. and 220 rpm for 16 hours. Thereafter, 1% of the culture medium was diluted in a 250 ml Erlenmeyer flask and then incubated to OD=0.5.

K. pneumoniae SCH777 = assay: checkerboard assay, MIC and FICI; details: for MIC Alone: 18 hours
Experimental: as §1, §2

[5] = test system: Acinetobacter baumannii strains; assay: transcriptome analysis (RNA sequencing, DEG, gene ontology); details: 1 hour
Experimental: First, in a LB agar plate, a single colony was inoculated into a 3 ml of a LB broth and incubated overnight under the conditions of 37° C. and 220 rpm for 16 hours. Thereafter, 1% of the culture medium was diluted in a 250 mL Erlenmeyer flask and then incubated to OD=0.5. The culture medium was dispensed at 5 ml each into three 15 ml round culture tubes, treated with PMB at a concentration of 16 μg/ml, PA108 at a concentration of 5 μm, and PMB at a concentration of 16 μg/ml and PA108 at a concentration of 5 μm, respectively, and incubated at 37° C. and 220 rpm for 1 hour. Thereafter, bacteria were washed three times with PBS, centrifuged at 4° C. and 8,000×g for 10 minutes, and stored at −80° C.
The library for performing RNA sequencing was prepared by extracting total RNA with a TruSeq Stranded Total RNA sample preparation kit including Ribo-Zero H/M/R, and synthesizing 150 bp-sized cDNA. The quality of the synthesized cDNA library was evaluated by Agilent 2100 BioAnalyzer (Agilent, CA, USA), and after amplifying the cluster of a denatured template, paired-end sequencing which sequences both ends of a DNA fragment using Illumina Novaseq 6000 (Illumina, CA, USA) was performed. For transcriptomic data analysis, the read value was filtered, and the filtered read value was mapped to a reference genome using an aligner STAR v.2.4.0b. Thereafter, in order to measure a gene expression amount, gene expression was quantified using a KAPA library quantification kit (Kapa Biosystems, MA, USA) according to the library quantification protocol of the manufacturer.
In order to identify a differential expression gene (DEG), a gene expression level was measured with Cufflinks v2.1.1 using gene annotation database, and gene expression level count data was produced using HTSeq-count v0.6.1p1. Form the produced data, a TCC R package was used to identify a gene having a q value of less than 0.05 as a differential expression gene.
For the genes identified as the differential expression gene (DEG), gene ontology (GO) analysis in which genes were classified according to three categories of biological process, molecular function, and cellular component, and information about the function of genes is provided was performed.

P. aeruginosa SMC-U9 = assay: checkerboard assay, MIC and FICI; details: for MIC Alone: 18 hours
Experimental: as §1, §2

[6] = test system: human body-derived renal cells ACHN; assay: nephrotoxicity, renal cell viability (cell titer glo); format: cell-based
Experimental: First, ACHN renal cells were incubated with 2×10^4 cells/well for 24 hours, and the medium was changed to a medium in which PMB or PA108 was mixed in all wells. After 0, 24, 48, 72, and 96 hours of the treatment with PMB or PA108, cell viability was measured as ratios of the amounts of ATP at each time to 0 hour through cell titer glo to evaluate cytotoxicity.

P. aeruginosa SMC-U10 = assay: checkerboard assay, MIC and FICI; details: for MIC Alone: 18 hours
Experimental: as §1, §2

[7] = test system: Acinetobacter baumannii strains; assay: cytoplasmic membrane potential (DiSC3(5) fluorescence); format: cell-based; details: PMB and PA108 in combination
Experimental: The cell membrane potential was resuspended in 5 mM HEPES (pH 7.0, +5 mM of glucose), DiSC3(5) (3,3′-Dipropylthiadicarbocyanine Iodide) (50 μM, Cat. D306, Invitrogen, Carlsbad, California) which is a pigment sensitive to potential was added, incubation was performed for 30 minutes, and then fluorescence was measured by a multifunctional microplate reader to measure membrane potential.

K. pneumoniae SCH740 = assay: checkerboard assay, MIC and FICI; details: for MIC Alone: 18 hours
Experimental: as §1, §2

[8] = test system: A. baumannii colistin R357; assay: checkerboard assay, MIC and FICI; details: for MIC Alone: 18 hours
Experimental: First, in a LB agar plate, 3-4 colonies were inoculated into a 4-5 ml of a LB broth and incubated overnight at 37° C. and 220 rpm for 16 hours. Thereafter, 5 ml of a 1/10000 dilution of the culture medium was made and incubated to OD=0.08-0.1 at 37° C. and 220 rpm in a 15 ml round culture tube.
as §1

[9] = in combination with polymyxin B
[10] = PMB 16 μg/ml + PA108 5 μM, gene ontology analysis
[11] = A. baumannii colistin R357, PA108 + polymyxin B

Compound: Cc1cc([N+](=O)[O-])cc(-c2ccc(Cl)cc2)c1O [PA108]
- FIC (P. aeruginosa SMC-U11): 0.0625
- MIC Alone (P. aeruginosa SMC-U11): 160 µM
- Interpretation (P. aeruginosa SMC-U11; PA108 + polymyxin B): Synergy
- MIC Combi (P. aeruginosa SMC-U11; [9]): 10 µM
- FIC (K. pneumoniae SCH530): 0.03125
- MIC Alone (K. pneumoniae SCH530): 160 µM
- Interpretation (K. pneumoniae SCH530; PA108 + polymyxin B): Synergy
- MIC Combi (K. pneumoniae SCH530; [9]): 5 µM
- survival time, simultaneous treatment (R357 strains [1]; C57BL/6 mouse, R357 i.p.): ≥ 168 h
- R357 strains in organs at autopsy, simultaneous treatment (R357 strains [1]): R357 strains were not detected in organs
- pathological symptoms, simultaneous treatment (R357 strains [1]; until 168 hours): without showing any pathological symptoms
- cell death by LIVE/DEAD fluorescence, PA108 single treatment ([2]; PA108 5 μM): the cells did not die
- cell morphology by scanning electron microscope, PA108 single treatment ([2]; PA108 5 μM): intact form in which the surface of cells was not damaged
- cell death by LIVE/DEAD fluorescence, simultaneous treatment ([2]; PMB 16 μg/ml + PA108 5 μM): cell death was derived
- cell morphology by scanning electron microscope, simultaneous treatment ([2]; PMB 16 μg/ml + PA108 5 μM): cells shrunk and an intracellular substance was leaked
- overall membrane permeability [3]: did not affect the overall membrane permeability
- effect of killing (CFU), PA108 single treatment (R357 strains [4]; PA108 5 μM): did not show the effect of killing
- cell death (CFU), simultaneous treatment (R357 strains [4]; PMB 16 μg/mL + PA108 5 μM): cell death was derived
- bacterial killing effect (R357 strains [4]; PMB 16 μg/mL + PA108 5 μM, final): 100%
- FIC (K. pneumoniae SCH777): 0.03125
- MIC Alone (K. pneumoniae SCH777): 160 µM
- Interpretation (K. pneumoniae SCH777; PA108 + polymyxin B): Synergy
- MIC Combi (K. pneumoniae SCH777; [9]): 5 µM
- gene change compared with control group, PA108 single treatment ([5]; PA108 5 μM): significant gene change was observed
- gene change compared with control group, simultaneous treatment ([5]; PMB 16 μg/ml + PA108 5 μM): significant gene change was observed
- expression of genes involved in transport of substances through a cell membrane, ATPase-coupled sulfate transmembrane transporter activity [5, 10]: significantly increased
- expression of genes involved in zinc ion binding, identical protein binding, ferric ion binding and peroxidase activity [5, 10]: significantly decreased
- FIC (P. aeruginosa SMC-U9): 0.0625
- MIC Alone (P. aeruginosa SMC-U9): 160 µM
- Interpretation (P. aeruginosa SMC-U9; PA108 + polymyxin B): Synergy
- MIC Combi (P. aeruginosa SMC-U9; [9]): 10 µM
- nephrotoxicity at working concentration ([6]; 5 μM): nephrotoxicity was not shown at all
- renal cell viability ([6]; concentration higher than 5 μM): ≥ 80%
- FIC (P. aeruginosa SMC-U10): 0.0625
- MIC Alone (P. aeruginosa SMC-U10): 160 µM
- Interpretation (P. aeruginosa SMC-U10; PA108 + polymyxin B): Synergy
- MIC Combi (P. aeruginosa SMC-U10; [9]): 10 µM
- bacterial cytoplasmic membrane potential [7]: changed the bacterial cytoplasmic membrane potential
- FIC (K. pneumoniae SCH740): 0.03125
- MIC Alone (K. pneumoniae SCH740): 160 µM
- Interpretation (K. pneumoniae SCH740; PA108 + polymyxin B): Synergy
- MIC Combi (K. pneumoniae SCH740; [9]): 5 µM
- FIC ([8]; A. baumannii colistin R357): 0.03125
- MIC Alone ([8]; A. baumannii colistin R357): 160 µM
- FICI [8, 11]: 0.06225
- Interpretation [8, 11]: synergistic effect; also recorded: Synergy
- MIC Combi ([8]; A. baumannii colistin R357, in combination with PB): 5 µM

Compound: polymyxin B [PMB, reference compound]
- FIC (P. aeruginosa SMC-U11): 0.0625
- MIC Alone (P. aeruginosa SMC-U11): 32 µg/mL
- MIC Combi (P. aeruginosa SMC-U11; in combination with PA108): 2 µg/mL
- FIC (K. pneumoniae SCH530): 0.0623
- MIC Alone (K. pneumoniae SCH530): 8 µg/mL
- MIC Combi (K. pneumoniae SCH530; in combination with PA108): 0.5 µg/mL
- cell death by LIVE/DEAD fluorescence, PMB single treatment ([2]; PMB 16 μg/ml): the cells did not die
- cell morphology by scanning electron microscope, PMB single treatment ([2]; PMB 16 μg/ml): intact form in which the surface of cells was not damaged
- effect of killing (CFU), PMB single treatment (R357 strains [4]; PMB 16 μg/mL): did not show the effect of killing
- FIC (K. pneumoniae SCH777): 0.00391
- MIC Alone (K. pneumoniae SCH777): 128 µg/mL
- MIC Combi (K. pneumoniae SCH777; in combination with PA108): 0.5 µg/mL
- gene change compared with control group, PMB single treatment ([5]; PMB 16 μg/ml): significant gene change was observed
- FIC (P. aeruginosa SMC-U9): 0.25
- MIC Alone (P. aeruginosa SMC-U9): 16 µg/mL
- MIC Combi (P. aeruginosa SMC-U9; in combination with PA108): 4 µg/mL
- concentration from which viability of renal cells decreased ([6]; up to 96 hours): ≥ 50 µg/mL
- FIC (P. aeruginosa SMC-U10): 0.125
- MIC Alone (P. aeruginosa SMC-U10): 16 µg/mL
- MIC Combi (P. aeruginosa SMC-U10; in combination with PA108): 2 µg/mL
- FIC (K. pneumoniae SCH740): 0.00781
- MIC Alone (K. pneumoniae SCH740): 128 µg/mL
- MIC Combi (K. pneumoniae SCH740; in combination with PA108): 1 µg/mL
- FIC ([8]; A. baumannii colistin R357): 0.031
- MIC Alone ([8]; A. baumannii colistin R357): 54 µg/mL
- MIC Combi ([8]; A. baumannii colistin R357, in combination with PA108): 2 µg/mL
- minimal inhibitory concentration (MIC) ([8]; R357 strains, polymyxin alone): 64 µg/mL
